Assay in all cases: In vitro competitive activity-based protein profiling (gel-based, FP-Rh or HT-01 probe)
Holding throughout (assay type): biochemical

In one assay the target is T1, ABHD6 (Mus musculus, UniProt Q8R2Y0).
T1 construct: Proteomes (mouse brain membrane fraction or cell lysates); from tissue; host or cells: mouse brain membrane fraction (or cell lysates, not specified)
T1 sequence (Q8R2Y0 1-336): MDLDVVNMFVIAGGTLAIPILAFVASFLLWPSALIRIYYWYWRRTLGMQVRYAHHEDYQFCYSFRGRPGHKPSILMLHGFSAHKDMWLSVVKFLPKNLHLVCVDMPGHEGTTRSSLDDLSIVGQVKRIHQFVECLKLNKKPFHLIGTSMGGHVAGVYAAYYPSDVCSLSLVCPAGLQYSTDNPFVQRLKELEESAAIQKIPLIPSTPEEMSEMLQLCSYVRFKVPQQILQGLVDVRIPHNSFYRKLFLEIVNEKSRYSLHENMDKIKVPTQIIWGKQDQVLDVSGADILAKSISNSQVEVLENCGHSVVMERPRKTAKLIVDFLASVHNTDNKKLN
The note with it: for inhibition at 1 µM: 1 μM inhibitor, read-out: % Inhibition at 1 μM, C = ABHD6; for inhibition at 10 µM: 10 μM inhibitor, read-out: % Inhibition at 10 μM, C = ABHD6; for IC50: mouse brain membrane fraction or cell lysates, 30 min preincubation at 37° C., read-out: Mouse (IC50 value, nM) ABHD6. In outline:
(§1)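 Mouse brain membrane or cell lysate proteomes (1.0 mg/mL) preincubated with inhibitors 30 min at 37° C, then labelled with FP-Rh or HT-01 for 30 min at 37° C. After SDS-PAGE, activity quantified from fluorescent band intensity.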

The target in a further assay is T2, FAAH (Mus musculus, UniProt O08914).
T2 construct: Proteomes (mouse brain membrane fraction or cell lysates); from tissue; host or cells: mouse brain membrane fraction (or cell lysates, not specified)
T2 sequence (O08914 1-579): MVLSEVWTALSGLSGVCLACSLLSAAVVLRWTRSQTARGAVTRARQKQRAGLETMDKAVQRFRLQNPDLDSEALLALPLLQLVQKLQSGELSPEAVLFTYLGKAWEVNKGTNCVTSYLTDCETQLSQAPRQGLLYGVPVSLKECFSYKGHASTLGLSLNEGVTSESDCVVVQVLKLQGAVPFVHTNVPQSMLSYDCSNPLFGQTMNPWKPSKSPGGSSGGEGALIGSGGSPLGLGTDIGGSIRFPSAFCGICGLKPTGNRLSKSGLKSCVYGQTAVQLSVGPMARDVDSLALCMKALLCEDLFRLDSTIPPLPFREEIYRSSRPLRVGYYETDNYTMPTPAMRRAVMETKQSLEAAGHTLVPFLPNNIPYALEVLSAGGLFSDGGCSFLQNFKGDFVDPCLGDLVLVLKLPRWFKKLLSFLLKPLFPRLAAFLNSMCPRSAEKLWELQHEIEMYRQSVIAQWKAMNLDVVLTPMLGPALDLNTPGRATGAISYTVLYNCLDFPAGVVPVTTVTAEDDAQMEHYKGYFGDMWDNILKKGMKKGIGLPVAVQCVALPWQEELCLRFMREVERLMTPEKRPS
As to conditions: for inhibition at 10 µM: 10 μM inhibitor, read-out: % Inhibition at 10 μM, B = FAAH; for inhibition at 1 µM: 1 μM inhibitor, read-out: % Inhibition at 1 μM, B = FAAH. The essentials: as §1

The next assay concerns the target T3, MAGL (Mus musculus, UniProt O35678).
T3 construct: Proteomes (mouse brain membrane fraction or cell lysates); from tissue; host or cells: mouse brain membrane fraction (or cell lysates, not specified)
T3 sequence (O35678 1-303): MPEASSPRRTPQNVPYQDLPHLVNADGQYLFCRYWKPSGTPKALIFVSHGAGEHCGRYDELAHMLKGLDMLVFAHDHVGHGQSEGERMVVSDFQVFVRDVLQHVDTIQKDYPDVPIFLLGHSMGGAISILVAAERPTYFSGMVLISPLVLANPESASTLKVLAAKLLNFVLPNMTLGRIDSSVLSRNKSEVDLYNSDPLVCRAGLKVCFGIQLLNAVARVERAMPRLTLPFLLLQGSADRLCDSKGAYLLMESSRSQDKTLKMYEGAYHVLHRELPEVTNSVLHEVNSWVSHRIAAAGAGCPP
The note with it: for inhibition at 10 µM: 10 μM inhibitor; for inhibition at 1 µM: 1 μM inhibitor. The essentials:
as §1

The target in the next assay is T4, PLA2G7 (Mus musculus, UniProt Q60963).
T4 construct: Proteomes (mouse brain membrane fraction or cell lysates); from tissue; host or cells: mouse brain membrane fraction (or cell lysates, not specified)
T4 sequence (Q60963 22-440): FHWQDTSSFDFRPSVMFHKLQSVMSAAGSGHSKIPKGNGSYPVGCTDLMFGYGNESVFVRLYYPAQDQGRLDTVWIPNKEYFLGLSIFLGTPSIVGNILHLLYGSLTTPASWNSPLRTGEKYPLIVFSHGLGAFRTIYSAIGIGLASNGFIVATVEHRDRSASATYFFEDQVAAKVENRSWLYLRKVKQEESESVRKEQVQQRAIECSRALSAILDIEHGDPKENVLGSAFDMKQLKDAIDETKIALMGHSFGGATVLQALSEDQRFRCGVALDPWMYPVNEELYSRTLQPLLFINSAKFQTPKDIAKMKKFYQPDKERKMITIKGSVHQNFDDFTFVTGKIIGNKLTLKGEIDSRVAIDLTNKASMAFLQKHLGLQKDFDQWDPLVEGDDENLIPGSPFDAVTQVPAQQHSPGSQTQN
As to conditions: for inhibition at 1 µM: 1 μM inhibitor, read-out: % Inhibition at 1 μM, D = PLA2G7; for inhibition at 10 µM: 10 μM inhibitor, read-out: % Inhibition at 10 μM, D = PLA2G7. In outline: as §1

By inhibition is commonly meant the relative decrease from the control value, in per cent. Take `O=C(N1CCN(Cc2cncnc2)CC1)n1cc(-c2ccccc2)cn1` [Example 64, (4-Phenyl-1H-pyrazol-1-yl)(4-(pyrimidin-5-ylmethyl)piperazin-1-yl)methanone]: the inhibition at 1 µM at ABHD6 and on PLA2G7 was greater than 75% each time. In addition, the inhibition at 10 µM is greater than 75% at ABHD6, less than 25% at FAAH, less than 25% at MAGL and greater than 75% on PLA2G7.
For `O=C(N1CCN(Cc2ccc(-c3ccccc3)cc2OCc2ccccc2)CC1)n1cc(Cl)cn1` [Example 148, (4-((3-(Benzyloxy)biphenyl-4-yl)methyl)piperazin-1-yl)(4-chloro-1H-pyrazol-1-yl)methanone], the inhibition at 1 µM on ABHD6 was greater than 75%; on FAAH, greater than 75%; on MAGL it was greater than 75%; at PLA2G7, less than 25%. Also, the inhibition at 10 µM on ABHD6 was greater than 75%; at FAAH, greater than 75%; at MAGL it was greater than 75%; at PLA2G7, less than 25%.
By IC50 is commonly meant the concentration needed to halve the response being measured. Regarding `COc1ccccc1-c1ccc(-c2cnn(C(=O)N3CCCC3)c2)cc1` [Example 107, (4-(2′-Methoxy-[1,1′-biphenyl]-4-yl)-1H-pyrazol-1-yl)(pyrrolidin-1-yl)methanone], the inhibition at 1 µM is greater than 75% at ABHD6, less than 25% on FAAH, less than 25% at MAGL and less than 25% at PLA2G7. Moreover, the inhibition at 10 µM is greater than 75% at ABHD6, less than 25% on FAAH, greater than 75% at MAGL and 25 to 75% on PLA2G7. Further, the IC50 at ABHD6 was in the range of 100 to 1000 nM.
As to `O=C(c1ccccc1)N1CCCN(C(=O)n2cc(C(F)(F)F)cn2)CC1` [Example 158, (4-Benzoyl-1,4-diazepan-1-yl)(4-(trifluoromethyl)-1H-pyrazol-1-yl)methanone], the inhibition at 1 µM at ABHD6, on FAAH, on MAGL and at PLA2G7 was greater than 75% each time. In addition, the inhibition at 10 µM at ABHD6, at FAAH, on MAGL and at PLA2G7 was greater than 75% in each case. Further, the half-maximal inhibitory concentration (IC50) is greater than 1000 nM on ABHD6; greater than 1000 nM on FAAH (mouse brain membrane fraction or cell lysates, 30 min preincubation at 37° C., read-out: Mouse (IC50 value, nM) FAAH); greater than 1000 nM on MAGL (mouse brain membrane fraction or cell lysates, 30 min preincubation at 37° C., read-out: Mouse (IC50 value, nM) MAGL); greater than 1000 nM at PLA2G7 (mouse brain membrane fraction or cell lysates, 30 min preincubation at 37° C.).
For the molecule `CC(C)(C)OC(=O)N1CCN(C(=O)n2cc(C#N)cn2)CC1` [Example 6, tert-Butyl 4-(4-cyano-1H-pyrazole-1-carbonyl)piperazine-1-carboxylate], the inhibition at 1 µM on ABHD6, on FAAH, on MAGL and at PLA2G7 was greater than 75% each time. The inhibition at 10 µM at ABHD6, at FAAH, at MAGL and on PLA2G7 was greater than 75% each time.
As for `O=C(c1cnn(C(=O)N2CCN(Cc3ccccn3)CC2)c1)N1CCCC1` [Example 81, (4-(Pyridin-2-ylmethyl)piperazin-1-yl)(4-(pyrrolidine-1-carbonyl)-1H-pyrazol-1-yl)methanone], the inhibition at 1 µM on ABHD6 and on PLA2G7 was less than 25% throughout. The inhibition at 10 µM on ABHD6 was greater than 75%; at FAAH, greater than 75%; at MAGL, less than 25%; on PLA2G7, greater than 75%.
`O=C(NCCCCc1ccccc1)n1cccn1` [Example 34, N-(4-Phenylbutyl)-1H-pyrazole-1-carboxamide]: the inhibition at 10 µM at ABHD6, on FAAH, at MAGL and on PLA2G7 was less than 25% in each case.

Values taken from patent US10093630B2, “Pyrazole compounds and methods of making and using same” (ABIDE THERAPEUTICS, INC., priority 2014, dated 2018).
